# Laboratory results reported in US11702441B2, “Spirobicyclic analogues” (Janssen Pharmaceutica NV, priority 2017, dated 2023).
# Molecular target: T1, PRMT5-MEP50 enzyme (Homo sapiens, UniProt O14744)
# T1 construct: One virus expresses full length human PRMT5 with Flag-tag at N-terminus; Flag (N); purchased Charles River (Argenta); host or cells: insect cells (Sf9), baculovirus co-infection
# Test: High throughput mass spectrometer assay of PRMT5-MEP50 enzyme activity (SAH formation)
# Assay type: biochemical
# Details: averaged values; inhibition of SAH formation; 1 μM SAM, 0.3 μM H2A, 1.25 nM enzyme, 30° C.
# Description: Reagents. PRMT5-MEP50 enzyme was purchased from Charles River (Argenta). The enzyme complex was produced in insect cells (Sf9) infected simultaneously with two baculoviruses. One virus expresses full length human PRMT5 with Flag-tag at N-terminus, the second virus expresses full length MEP50 with His6-TEV cleavage at N-terminus. The protein was affinity purified using anti-Flag (M2) beads eluted with 3×FLAG peptide, followed by His-Select eluted with 0.5M imidazole. Eluted protein was then dialysed against tris-buffered saline (TBS) (pH 8.0) containing 20% glycerol and 3 mM dithiothreitol (DTT).
# Full-length untagged human recombinant histone H2A (residues 1-130, Genbank Accession #NM_021052, MW=14.1 kDa) expressed in E. coli was purchased from Reaction Biology Corporation, Cat #HMT-11-146. Reagents used for making reaction buffer or stopping reaction were purchased including Tris base (Sigma Cat #T-1503), NaCl (Sigma Cat #RGF-3270), MgCl2 (Sigma Cat #M0250), DTT (Invitrogen Cat #15508-013) and Formic Acid (Riedel deHaen, Cat #33015)
# High Throughput Mass Spectrometer Assay PRMT5 catalyzes the sequential methylations of the terminal nitrogen atoms on the guanidine groups of arginine residues within proteins using co-substrate S-adenosyl-L-methionine (AdoMet, SAM), forming mono-methyl (MMA), symmetric-dimethyl arginine (sDMA) and S-adenosyl-L-homocysteine (AdoHcy, SAH). The enzyme activity was determined by following the product SAH formation using high throughput mass spectrometry (Agilent Rapidfire 300 System coupled to a Sciex 4000 series QTrap® triple-quad MS/MS). The reaction buffer was 20 mM Tris-HCl, pH 8.5, 50 mM NaCl. 5 mM MgCl2 and 1 mM DTT. The reaction activity was stopped using 1% formic acid (final concentration).
# Inhibition Studies. The IC50 Studies were performed using eleven point dosing series made for each compound by serially diluted 1:2 in dimethyl sulfoxide (DMSO), with point 12 being a DMSO control. Compounds were first spotted to plates, and followed by addition of 2 μM SAM and 0.6 μM H2A (histone H2A) solution mixture. The same volume of enzyme solution was added to initiate the enzymatic reactions. The final concentrations of the reaction are at 1 μM SAM, 0.3 μM H2A and 1.25 nM enzyme. The reaction was incubated at 30° C. for 60 minutes (min) when 10 nM enzyme was used and for 120 min when 1.25 nM enzyme was used. Subsequently, the reaction was quenched by addition of formic acid to a final concentration of 1%. The inhibitions of SAH formation in the presence of compounds were calculated as a percentage of the control relative to the uninhibited reaction as a function of inhibitor concentration. The data were fit as follows: Y=Bottom+(Top−Bottom)/(1+10^((log IC50−X)*h))
# where IC50 is the inhibitor concentration (same unit as X) at 50% inhibition and h is the Hill slope. Y is percent of inhibition, X is log of compound concentration. Bottom and Top are the plateaus in same units as Y.
# The pIC50 values in the Table below are averaged values (Co. No. means compound number: n.d. means not determined)
# T1 sequence (O14744 whole entry): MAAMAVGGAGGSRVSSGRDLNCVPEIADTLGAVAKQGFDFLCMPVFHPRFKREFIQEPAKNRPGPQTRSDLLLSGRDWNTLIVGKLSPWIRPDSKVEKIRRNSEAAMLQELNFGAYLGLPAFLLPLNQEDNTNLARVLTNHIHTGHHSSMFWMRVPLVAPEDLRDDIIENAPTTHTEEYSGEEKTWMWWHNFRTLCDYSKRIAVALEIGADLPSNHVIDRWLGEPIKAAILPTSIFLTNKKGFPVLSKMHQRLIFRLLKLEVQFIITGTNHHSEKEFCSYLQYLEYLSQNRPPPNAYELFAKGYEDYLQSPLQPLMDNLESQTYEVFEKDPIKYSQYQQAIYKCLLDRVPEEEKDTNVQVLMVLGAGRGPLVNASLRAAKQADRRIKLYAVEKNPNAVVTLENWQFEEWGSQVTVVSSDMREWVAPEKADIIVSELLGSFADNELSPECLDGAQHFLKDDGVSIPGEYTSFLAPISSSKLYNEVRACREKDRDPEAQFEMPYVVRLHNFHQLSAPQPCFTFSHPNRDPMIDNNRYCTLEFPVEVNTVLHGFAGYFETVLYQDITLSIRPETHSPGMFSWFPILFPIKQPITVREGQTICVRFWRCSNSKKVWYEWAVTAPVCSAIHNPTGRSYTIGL
# T1 sequence (Q9BQA1 whole entry partner): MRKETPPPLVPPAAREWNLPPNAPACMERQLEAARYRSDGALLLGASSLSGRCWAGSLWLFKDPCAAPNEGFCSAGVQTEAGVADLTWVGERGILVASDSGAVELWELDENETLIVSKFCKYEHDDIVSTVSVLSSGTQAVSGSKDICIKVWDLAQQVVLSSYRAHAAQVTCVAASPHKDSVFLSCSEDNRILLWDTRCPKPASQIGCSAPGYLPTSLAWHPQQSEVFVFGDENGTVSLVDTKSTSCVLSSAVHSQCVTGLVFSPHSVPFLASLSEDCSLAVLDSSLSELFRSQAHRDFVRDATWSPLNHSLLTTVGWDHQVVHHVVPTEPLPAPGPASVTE
Compound,pIC50,IC50 [nM]
Cl.Nc1ncnc2c1ccn2[C@@H]1CC2(CC(Cn3c(Cl)cccc3=O)C2)[C@@H](O)[C@H]1O (mixture of isomers) [Compound 32],5.69,–
"Nc1ncnc2c1ccn2[C@@H]1C[C@]2(C[C@H](CO)C2)[C@@H](O)[C@H]1O (single isomer, unassigned) [Compound 35]",–,933
"Nc1ncnc2c1ccn2[C@@H]1C[C@]2(C[C@@H](CO)C2)[C@@H](O)[C@H]1O (single isomer, unassigned) [Compound 36]",–,1410
Nc1ccc2ccc(O[C@H]3C[C@]4(C3)O[C@@H](n3cnc5c(N)ncnc53)[C@H](O)[C@@H]4O)cc2n1 [Compound 2],–,30.9
Nc1ncnc2c1ncn2[C@@H]1O[C@]2(C[C@@H](Oc3ccc4ccc(Cl)nc4c3)C2)[C@@H](O)[C@H]1O [Compound 3],–,8130
Nc1ncnc2c1ncn2[C@@H]1O[C@]2(C[C@@H](Oc3ccc4cc(Br)cnc4c3)C2)[C@@H](O)[C@H]1O [Compound 4],–,3020
Nc1ncnc2c1ncn2[C@@H]1O[C@]2(C[C@H](Oc3ccc4cc(Br)cnc4c3)C2)[C@@H](O)[C@H]1O [Compound 6],–,120
Nc1ncnc2c1ncn2[C@@H]1O[C@]2(C[C@@H](O)C2)[C@@H](O)[C@H]1O [Compound 7],–,5010
Nc1ncnc2c1ncn2[C@@H]1O[C@]2(C[C@H](O)C2)[C@@H](O)[C@H]1O [Compound 8],–,3550
Nc1ncnc2c1ncn2[C@@H]1O[C@]2(C[C@H](Oc3ccc4cc(Cl)cnc4c3)C2)[C@@H](O)[C@H]1O [Compound 9],–,257
Nc1ncnc2c1ccn2[C@@H]1C[C@]2(C[C@H](Oc3ccc4cc(Cl)cnc4c3)C2)[C@@H](O)[C@H]1O [Compound 12],–,2400
Nc1ncnc2c1ccn2[C@@H]1C[C@]2(C[C@@H](Oc3ccc4cc(Cl)cnc4c3)C2)[C@@H](O)[C@H]1O [Compound 13],–,646
Nc1ncnc2c1ccn2[C@@H]1C[C@]2(C[C@@H](Cc3ccc4scnc4c3)C2)[C@@H](O)[C@H]1O [Compound 17],–,389
Nc1nc2cc(C[C@H]3C[C@]4(C[C@@H](n5ccc6c(N)ncnc65)[C@H](O)[C@@H]4O)C3)ccc2s1 [Compound 18],–,35.5
Nc1ncnc2c1ccn2[C@@H]1C[C@]2(C[C@H](Cc3ccc4ncsc4c3)C2)[C@@H](O)[C@H]1O [Compound 20],–,490
Nc1ncnc2c1ccn2[C@@H]1C[C@]2(C[C@@H](Cc3ccc4ncsc4c3)C2)[C@@H](O)[C@H]1O [Compound 21],–,145
Nc1nc2ccc(C[C@H]3C[C@]4(C[C@@H](n5ccc6c(N)ncnc65)[C@H](O)[C@@H]4O)C3)cc2s1 [Compound 22],–,1580
Nc1ncnc2c1ccn2[C@@H]1C[C@]2(C[C@H](Cc3ccn4ccnc4c3)C2)[C@@H](O)[C@H]1O [Compound 24],–,9.12
Nc1ncnc2c1ccn2[C@@H]1C[C@]2(C[C@@H](Cc3ccn4ccnc4c3)C2)[C@@H](O)[C@H]1O [Compound 25],–,10.2
Nc1ncnc2c1ccn2[C@@H]1C[C@]2(C[C@H](Cc3cccnc3)C2)[C@@H](O)[C@H]1O [Compound 28],–,145
Nc1ncnc2c1ccn2[C@@H]1C[C@]2(C[C@H](COc3cccc(Cl)n3)C2)[C@@H](O)[C@H]1O [Compound 30],–,1620
Nc1ncnc2c1ccn2[C@@H]1C[C@]2(C[C@@H](COc3cccc(Cl)n3)C2)[C@@H](O)[C@H]1O [Compound 31],–,3470

# Further lines, results first:
pIC50,IC50 [nM],Compound
–,3020,Nc1ncnc2c1ncn2[C@@H]1O[C@]2(C[C@@H](OCc3ccccc3)C2)[C@@H](O)[C@H]1O [Compound 1]
–,9.33,Nc1ccc2ccc(O[C@H]3C[C@@]4(C3)O[C@@H](n3cnc5c(N)ncnc53)[C@H](O)[C@@H]4O)cc2n1 [Compound 5]
–,91.2,Nc1ncnc2c1ccn2[C@@H]1C[C@]2(C[C@H](Oc3ccc4cccnc4c3)C2)[C@@H](O)[C@H]1O [Compound 11]
–,2000,Nc1ncnc2c1ccn2[C@@H]1C[C@]2(C[C@H](Cc3ccc4cc(Cl)cnc4c3)C2)[C@@H](O)[C@H]1O [Compound 14]
–,1100,Nc1ncnc2c1ccn2[C@@H]1C[C@]2(C[C@@H](Cc3ccc4cc(Cl)cnc4c3)C2)[C@@H](O)[C@H]1O [Compound 15]
–,490,Nc1ncnc2c1ccn2[C@@H]1C[C@]2(C[C@H](Cc3ccc4scnc4c3)C2)[C@@H](O)[C@H]1O [Compound 16]
–,132,Nc1nc2cc(C[C@H]3C[C@@]4(C[C@@H](n5ccc6c(N)ncnc65)[C@H](O)[C@@H]4O)C3)ccc2s1 [Compound 19]
–,295,Nc1nc2ccc(C[C@H]3C[C@@]4(C[C@@H](n5ccc6c(N)ncnc65)[C@H](O)[C@@H]4O)C3)cc2s1 [Compound 23]
–,2450,Nc1ncnc2c1ccn2[C@@H]1C[C@]2(C[C@H](Cc3ccccn3)C2)[C@@H](O)[C@H]1O [Compound 26]
–,5620,Nc1ncnc2c1ccn2[C@@H]1C[C@]2(C[C@@H](Cc3ccccn3)C2)[C@@H](O)[C@H]1O [Compound 27]
–,170,Nc1ncnc2c1ccn2[C@@H]1C[C@]2(C[C@@H](Cc3cccnc3)C2)[C@@H](O)[C@H]1O [Compound 29]
–,245,Nc1nc2cc(C[C@H]3C[C@]4(C[C@@H](n5ccc6c(N)ncnc65)[C@H](O)[C@@H]4O)C3)ccc2cc1Br [Compound 33]
–,4570,Nc1ncnc2c1ncn2[C@@H]1O[C@]2(C[C@H](Cc3ccc4cc(Cl)cnc4c3)C2)[C@@H](O)[C@H]1O [Compound 44]
–,5500,Nc1ncnc2c1ncn2[C@@H]1O[C@]2(C[C@@H](Cc3ccc4cc(Cl)cnc4c3)C2)[C@@H](O)[C@H]1O [Compound 45]
